The source of these data is PMC5535840 (International Journal of Molecular Sciences, 2017).

Test [1] deals with T1, hMT2; MT2 melatonin receptor (Homo sapiens, UniProt P49286).
T1 construct: gene MTNR1B
T1 sequence (P49286 1-362): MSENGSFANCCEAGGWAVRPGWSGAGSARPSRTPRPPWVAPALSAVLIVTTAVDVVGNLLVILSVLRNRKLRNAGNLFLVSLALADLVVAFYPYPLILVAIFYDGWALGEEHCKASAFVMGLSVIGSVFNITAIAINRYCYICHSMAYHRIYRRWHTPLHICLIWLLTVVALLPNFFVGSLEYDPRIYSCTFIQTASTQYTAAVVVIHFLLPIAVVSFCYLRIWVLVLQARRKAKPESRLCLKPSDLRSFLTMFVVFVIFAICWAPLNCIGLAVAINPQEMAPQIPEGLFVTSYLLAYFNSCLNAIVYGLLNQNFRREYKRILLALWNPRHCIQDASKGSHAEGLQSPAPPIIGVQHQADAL
The test can be described thus: […]-[…]-iodomelatonin displacement, CHO-K1 membranes. Type of test: binding.

The target of test [2] is T1, hMT2; MT2 melatonin receptor. The test can be described thus: […]-GTPγS binding, CHO-K1 membranes. Type of test: biochemical. A general note: Binding of GTPγS marks nucleotide exchange on a G protein.
Test [3] concerns the target T2, hMT1; MT1 melatonin receptor (Homo sapiens, UniProt P48039).
T2 construct: gene MTNR1A
The test can be described thus: […]-GTPγS binding, CHO-K1 membranes. The following applies: read-out: MT1 / pEC50 (converted). Type of test: biochemical.

The target in test [4] is T2, hMT1; MT1 melatonin receptor. The test can be described thus: […]-[…]-iodomelatonin displacement, CHO-K1 membranes. The class given is binding.
Where [5] appears, read: radioligand […]-[…]-iodomelatonin.
Where [6] appears, read: read-out: MT2 / pEC50 (converted).

Structures are written as SMILES. Read-outs that look alike come from different tables or passages of the source.

T2 sequence (P48039 whole entry): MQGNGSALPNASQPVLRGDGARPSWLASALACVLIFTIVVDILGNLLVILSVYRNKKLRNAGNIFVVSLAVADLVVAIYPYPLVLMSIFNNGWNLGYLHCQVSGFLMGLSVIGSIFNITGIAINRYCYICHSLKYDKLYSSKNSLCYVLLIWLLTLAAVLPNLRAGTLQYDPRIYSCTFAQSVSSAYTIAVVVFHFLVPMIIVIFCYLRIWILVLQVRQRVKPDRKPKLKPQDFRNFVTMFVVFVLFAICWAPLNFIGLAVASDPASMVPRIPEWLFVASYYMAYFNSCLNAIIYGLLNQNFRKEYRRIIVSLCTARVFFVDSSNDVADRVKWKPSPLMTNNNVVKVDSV

In general, Ki refers to the dissociation constant of the complex between target and ligand, obtained from inhibition or displacement. Lower therefore signals a stronger hold on the target. For the molecule `COc1cc(Br)c(Cc2cc(OC)c(OC)cc2CC(=O)OC(C)(C)C)cc1OC` [DIV0879], the inhibition constant Ki in test [1] (setting [5]) stood at 1.4 ± 0.1 nM; in test [4], 1780 ± 118 nM. Besides, the EC50 in test [2] (setting [6]) is 1.38 nM; in test [3] it was > 10000 nM.
Take `COc1cc(I)c(Cc2cc(OC)c(OC)cc2CC(=O)OC(C)(C)C)cc1OC` [DIV0880]: the Ki turned out to be 1 ± 0.1 nM in test [1] and 1200 ± 143 nM in test [4]. The results for the EC50 in test [2] (setting [6]) and in test [3] were 0.331 nM and > 10000 nM, respectively.
As to `COc1ccc(Cc2cc(OC)c(OC)cc2CC(=O)OC(C)(C)C)cc1OC` [DIV4288], the Ki was 1.4 ± 0.1 nM in test [1] (setting [5]) and 1300 ± 97 nM in test [4] (setting [5]). Besides, the EC50 in test [2] (setting [6]) is 2.04 nM; in test [3] it was > 10000 nM.
With `COc1cc(F)c(Cc2cc(OC)c(OC)cc2CC(=O)OC(C)(C)C)cc1OC` [DIV6518], the inhibition constant Ki in test [1] (setting [5]) amounted to 1.4 ± 0.3 nM; in test [4] (setting [5]), 630 ± 55 nM. Besides, the EC50 in test [2] (setting [6]) was 1.17 nM; in test [3], > 10000 nM.
In the case of `COc1cc(CC(=O)OC(C)(C)C)c(Cc2cc(OC)c(OC)cc2-c2ccccc2)cc1OC` [DIV6519], the results for the inhibition constant (Ki) in test [1] (setting [5]) and in test [4] (setting [5]) were 0.49 ± 0.01 nM and 44 ± 7 nM, respectively. Further, the EC50 in test [2] (read-out: MT1 / pEC50 (converted)) and in test [3] was > 10000 nM each time.
